# Assay results taken from patent US11679107B2 (Eisai R&D Management Co., Ltd., priority 2018, dated 2023).
# Like-named read-outs stand apart in the source and are kept apart here.
# Columns and labels:
# [1] = system: Ad2 variant pre-mRNAs spliced in HeLa S3 nuclear extracts; assay: In vitro splicing assay (IVS), RT-qPCR of spliced product; format: biochemical; conditions: for IC50: geometric mean; for Ratio Ad2.1/2.2: ratio of IVS IC50 Ad2.1 to Ad2.2
# In short: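 Read-out is one-step TaqMan RT-qPCR of spliced Ad2 mRNA with Ftz as reference, normalized to DMSO and fit by non-linear regression. Reactions held HeLa S3 nuclear extract, 2 ng Ad2-derived pre-mRNA and test compound, with 15 min preincubation. Splicing was started with ATP-containing activation buffer and run 90 min at 30 °C.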
# [2] = system: Panc 05.04 cells (SF3b K700E mutant); assay: Cell proliferation and viability, CellTiter-Glo, 72 hours; format: cell-based; conditions: for GI50: geometric mean
# In short: (§1)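 RPMI-1640/10% FBS (Panc: + insulin, FBS 15%); 11-pt half-log dose, ~10 μM-100 pM, 0.1% DMSO; 37° C, 5% CO2; ATP luminescence read; % inhibition vs T0 and vehicle, −100% cidal to 100% uninhibited growth.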
# [3] = system: NCI-H1568 cells (high MCL1); assay: as above; format: cell-based; conditions: for GI50: geometric mean
# In short: as §1
# SF3b complexes = biological target: T1, SF3b complexes (Homo sapiens, UniProt O75533+Q7RTV0); assay: Scintillation proximity assay (SPA) with [3H]-labelled pladienolide probe; format: binding; conditions: SF3B1 (WT); geometric mean; read-out: SPA-ATS GMean IC50 (nM) SF3B1 (WT)
# T1 construct: endogenous in cells; host or cells: Nuclear extracts; A HeLa S3 extract preparation is described for the in vitro splicing assay
# In short: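 SF3b complexes captured from nuclear extracts on anti-SF3B1 antibody SPA beads; test compounds pre-incubated 30 min before 2.5 nM [3H]-pladienolide probe added, then 30 min incubation. Bound probe read by scintillation; values from non-linear regression of concentration–response curves.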
# [4] = Ad2.1 pre-mRNA substrate, read-out: qPCR-IVS-ATS GMean IC50 (nM) Ad2.1
# [5] = Ad2.2 pre-mRNA substrate, read-out: qPCR-IVS-ATS GMean IC50 (nM) Ad2.2
# [6] = PANC0504.1 cells, 72 h, −100% cidal, 0% static, 100% maximal growth
# [7] = Panc 05.04, read-out: CTGlo-ATS GMean GI50 (nM) 72 h PANC0504.1, PANC0504.1 cells, 72 h
# [8] = NCI-H1568, read-out: CTGlo-ATS GMean GI50 (nM) 72 h NCIH1568.1, NCIH1568.1 cells, 72 h
# [9] = NCIH1568.1 cells, 72 h, −100% cidal, 0% static, 100% maximal growth
# [10] = 72 h, PANC0504.1, -100% = cidal, 0% = static, 100% = uninhibited growth
# [11] = Panc 05.04, 72 h, read-out: CTGlo-ATS GMean GI50 (nM) 72 h PANC0504.1, 72 h, PANC0504.1
# [12] = 72 h, NCIH1568.1, -100% = cidal, 0% = static, 100% = uninhibited growth
# [13] = NCI-H1568, 72 h, read-out: CTGlo-ATS GMean GI50 (nM) 72 h NCIH1568.1, 72 h, NCIH1568.1
# [14] = Panc 05.04, 72 h, read-out: CTGlo-ATS GMean GI50 (nM) 72 h PANC0504.1, PANC0504.1 cells, 72 h
# [15] = NCI-H1568, 72 h, read-out: CTGlo-ATS GMean GI50 (nM) 72 h NCIH1568.1, NCIH1568.1 cells, 72 h
SMILES,"IC50 [1, 4] [nM]","IC50 [1, 5] [nM]","CTGlo-ATS Mean MinResponse % 72 h PANC0504.1 [2, 6] [%]","GI50 [2, 7] [nM]","GI50 [3, 8] [nM]","CTGlo-ATS Mean MinResponse % 72 h NCIH1568.1 [3, 9] [%]",IC50 (SF3b complexes) [nM],Ratio Ad2.1/2.2 [1],"CTGlo-ATS Mean MinResponse % 72 h PANC0504.1 [2, 10] [%]","GI50 [2, 11] [nM]","CTGlo-ATS Mean MinResponse % 72 h NCIH1568.1 [3, 12] [%]","GI50 [3, 13] [nM]","GI50 [2, 14] [nM]","GI50 [3, 15] [nM]"
C/C(=C\c1cc(F)cc(N2CCOCC2)c1)[C@H]1OC(=O)C[C@H](O)CC[C@H](C)[C@@H](OC(=O)N(C)C2CCN(C)CC2)/C=C/[C@@H]1C [Compound 22],876,38.8,−84.195,11.6,12.8,−69.453,5.76,,,,,,,
C/C(=C\c1cc(F)cc(N2CCOC[C@H]2C)c1)[C@H]1OC(=O)C[C@H](O)CC[C@H](C)[C@@H](OC(=O)N2CCN(C)CC2)/C=C/[C@@H]1C [Compound 75],19,15.4,−81.995,3.69,3.58,−85.064,2.15,,,,,,,
C/C(=C\c1cc(F)cc(N2CCNC2=O)c1)[C@H]1OC(=O)C[C@H](O)CC[C@H](C)[C@@H](OC(=O)N2CCN(C)CC2)/C=C/[C@@H]1C [Compound 64],116,24.4,−92.050,7.96,6.5,−66.274,3.08,,,,,,,
"C/C(=C\c1cc(F)cc(N2CCOCC2)c1)[C@H]1OC(=O)C[C@H](O)CC[C@H](C)[C@@H](OC(=O)N(C)CCC#N)/C=C/[C@@H]1C [Compound 245, [(2S,3S,4E,6R,7S,10R)-2-[(E)-1-(3-fluoro-5-morpholin-4-ylphenyl)prop-1-en-2-yl]-10-hydroxy-3,7-dimethyl-12-oxo-1-oxacyclododec-4-en-6-yl] N-(2-cyanoethyl)-N-methylcarbamate]",8880,64.8,,,,,17.4,136.897,−95.548,113,−46.475,62.3,,
COc1ccc(S(=O)(=O)N2CCN(c3cc(F)cc(/C=C(\C)[C@H]4OC(=O)C[C@H](O)CC[C@H](C)[C@@H](OC(=O)N5CCN(C)CC5)/C=C/[C@@H]4C)c3)CC2)cc1 [Compound 110],142,63.2,−74.667,41.8,40.9,−93.755,42.1,,,,,,,
"C/C(=C\c1cccc(COC(=O)N2CC[C@@H](O)C2)c1)[C@H]1OC(=O)C[C@H](O)CC[C@H](C)[C@@H](OC(=O)N2CCN(C)CC2)/C=C/[C@@H]1C [Compound 254, [(2S,3S,4E,6R,7S,10R)-10-hydroxy-2-[(E)-1-[3-[[(3R)-3-hydroxypyrrolidine-1-carbonyl]oxymethyl]phenyl]prop-1-en-2-yl]-3,7-dimethyl-12-oxo-1-oxacyclododec-4-en-6-yl] 4-methylpiperazine-1-carboxylate]",22000,52.2,,,,,5.12,422.058,−77.065,29,−41.424,23.7,,
C/C(=C\c1cc(F)cc(N2CCC[C@H]2C)c1)[C@H]1OC(=O)C[C@H](O)CC[C@H](C)[C@@H](OC(=O)N2CCN(C)CC2)/C=C/[C@@H]1C [Compound 41],221,39.2,−82.009,,,−77.375,8.26,,,,,,15.8,21.4
C/C(=C\c1cc(F)cc(N2CCN(C(=O)C3CC3)CC2)c1)[C@H]1OC(=O)C[C@H](O)CC[C@H](C)[C@@H](OC(=O)N2CCN(C)CC2)/C=C/[C@@H]1C [Compound 109],26.5,14,−84.673,3.55,2,−84.780,2.85,,,,,,,
"C/C(=C\c1cccc(COC(=O)N2CCOCC2)c1)[C@H]1OC(=O)C[C@H](O)CC[C@H](C)[C@@H](OC(=O)N2CCN(C)CC2)/C=C/[C@@H]1C [Compound 257, [3-[(E)-2-[(2S,3S,4E,6R,7S,10R)-10-hydroxy-3,7-dimethyl-6-(4-methylpiperazine-1-carbonyl)oxy-12-oxo-1-oxacyclododec-4-en-2-yl]prop-1-enyl]phenyl]methyl morpholine-4-carboxylate]",> 25000,117,,,,,5.75,213.903,−75.412,71.5,−4.151,266,,
C/C(=C\c1cc(F)cc(N2CCC[C@@H]2CO)c1)[C@H]1OC(=O)C[C@H](O)CC[C@H](C)[C@@H](OC(=O)N2CCN(C)CC2)/C=C/[C@@H]1C [Compound 44],12800,86.6,−92.314,,,−14.871,8.26,,,,,,41.5,67.2
C/C(=C\c1cc(F)cc(N2CCN(CCO)CC2)c1)[C@H]1OC(=O)C[C@H](O)CC[C@H](C)[C@@H](OC(=O)N2CCOCC2)/C=C/[C@@H]1C [Compound 53],1910,30.5,−92.947,81.1,81.8,−59.250,14.1,,,,,,,
CC[C@H](O)[C@@H](C)CN1CCN(c2cc(F)cc(/C=C(\C)[C@H]3OC(=O)C[C@H](O)CC[C@H](C)[C@@H](OC(=O)N4CCN(C)CC4)/C=C/[C@@H]3C)c2)CC1 [Compound 71],29.7,18.9,−68.599,11.5,6.39,−92.527,3.71,,,,,,,
CC(=O)N1CCC(n2nnc3c(F)cc(/C=C(\C)[C@H]4OC(=O)C[C@H](O)CC[C@H](C)[C@@H](OC(=O)N5CCN(C)CC5)/C=C/[C@@H]4C)cc32)CC1 [Compound 160],4.68,4.69,−82.399,1.15,0.896,−86.403,1.65,,,,,,,
C/C(=C\c1cccc(N2CCNCC2)c1)[C@H]1OC(=O)C[C@H](O)CC[C@H](C)[C@@H](OC(=O)N2CCN(C)CC2)/C=C/[C@@H]1C [Compound 1],28.9,18.7,−79.550,54.8,61.2,−71.582,19.8,,,,,,,
COCCC(=O)N1CCN(c2cc(F)cc(/C=C(\C)[C@H]3OC(=O)C[C@H](O)CC[C@H](C)[C@@H](OC(=O)N4CCN(C)CC4)/C=C/[C@@H]3C)c2)CC1 [Compound 134],26.5,13.3,−92.570,4.11,3.92,−79.743,2.06,,,,,,,
C/C(=C\c1cc(F)cc(N2CCOCC2=O)c1)[C@H]1OC(=O)C[C@H](O)CC[C@H](C)[C@@H](OC(=O)N2CCN(C)CC2)/C=C/[C@@H]1C [Compound 56],16.1,15.3,−90.320,1.85,4.42,−67.625,1.94,,,,,,,
C/C(=C\c1cc(F)cc(N(C)C2CCOCC2)c1)[C@H]1OC(=O)C[C@H](O)CC[C@H](C)[C@@H](OC(=O)N2CCN(C)CC2)/C=C/[C@@H]1C [Compound 168],27.6,16.5,−86.930,10.4,5.96,−75.760,3.05,,,,,,,
